{"source": "paper PMC12734986", "about": "(Marine Drugs, 2025)", "key": {"[1]": {"system": "NSCLC cells (A549, H460, H1299)", "experiment": "Colony formation assay", "assay_type": "cell-based, human", "conditions": "10 and 20 μM, 7 days, crystal violet, all NSCLCs", "experimental": "(§1) Lung cancer cells were seeded at a density of 10^3 cells in a 35 mm dish and cultured with the peptide for 7 days, until macroscopic colonies formed. Following incubation, the cells were washed and stained with 0.1% crystal violet for 30 min, and the colonies were imaged and counted. Cell morphology was observed and captured at ×10 magnification using an inverted light microscope."}, "lung cancer cells [2]": {"system": "lung cancer cells", "experiment": "Cell morphology by inverted light microscope", "assay_type": "cell-based, human", "conditions": "10 μM MP28, lung cancer cells", "experimental": "as §1"}, "horse blood erythrocytes": {"system": "horse blood erythrocytes", "experiment": "Hemolytic activity assay", "assay_type": "cell-based", "conditions": "20 μM", "text": "In this assay, 1% Triton X-100, which causes 100% hemolysis of horse blood erythrocytes, was used as a positive control to indicate complete cell lysis. DW solution served as a negative control, indicating no hemolytic activity."}, "NSCLC cells [3]": {"system": "NSCLC cells", "experiment": "Transwell migration assay", "assay_type": "cell-based, human", "conditions": "Transwell 8 μm pores, 10 μM", "experimental": "(§2) Cell migration and invasion were assessed using Transwell chambers with 8 μm pores (BD Biosciences). Cancer cells (2 × 10^4) were seeded in serum-free medium in the upper chamber, while medium containing 10% FBS was placed in the lower chamber. Matrigel-coated upper chambers were used for invasion assays. Following incubation, the migratory and invasive cells were fixed, stained with crystal violet, and imaged under a light microscope."}, "NSCLC cells [4]": {"system": "NSCLC cells", "experiment": "Transwell invasion assay (Matrigel-coated)", "assay_type": "cell-based, human", "conditions": "10 μM", "experimental": "as §2"}, "[5]": {"system": "cellular vimentin in lung cancer cells", "experiment": "Vimentin immunofluorescence staining", "assay_type": "cell-based, human", "conditions": "10 μM MP28, immunofluorescence"}, "lung cancer cells [6]": {"system": "lung cancer cells", "experiment": "Wound-healing assay", "assay_type": "cell-based, human", "conditions": "more pronounced at 24 h", "experimental": "For the wound-healing assays, cancer cells were grown to >90% confluence in 6-well plates, and scratches were created using a pipette tip. After washing, the cells were incubated in a medium with 10% FBS for 18 h and 24 h. Wound closure was monitored using an inverted phase-contrast microscope (CKX53, Olympus, Shinjuku, Tokyo, Japan), and migration was quantified by measuring the distance between wound edges at multiple sites."}, "A549 cells": {"system": "A549 cells", "experiment": "Annexin V/PI staining, flow cytometry", "assay_type": "cell-based, human", "conditions": "A549, upper end of the increase (20 μM)", "experimental": "(§3) The treated cells (1 × 10^6) were harvested, washed with PBS, and collected by centrifugation. Cells were stained with Annexin V and propidium iodide (PI) solution (556547; BD Biosciences, San Jose, CA, USA), followed by incubation at 37 °C for 15 min. […] As a negative control, z-VAD-FMK was added to each experimental condition according to the manufacturer’s instructions (ab65615; caspase 9 FITC staining kit). The cells were resuspended in 300 μL of a washing buffer and were analyzed by a flow cytometer (Accuri C6 Plus; BD Biosciences, San Jose, CA, USA)."}, "H1299 cells": {"system": "H1299 cells", "experiment": "Annexin V/PI staining, flow cytometry", "assay_type": "cell-based, human", "experimental": "as §3"}, "H460 cells": {"system": "H460 cells", "experiment": "Annexin V/PI staining, flow cytometry", "assay_type": "cell-based, human", "experimental": "as §3"}, "[7]": {"system": "caspase-9 in NSCLC cells (A549, H460, H1299)", "experiment": "Active caspase-9 (FITC-LEHD-FMK) staining", "assay_type": "cell-based, human", "experimental": "as §3"}, "[8]": {"system": "A549 xenograft in BALB/c nude mice", "experiment": "A549 xenograft tumor growth", "assay_type": "in vivo, mouse", "conditions": "20 mg/kg intratumorally, every other day, six injections, subcutaneous A549", "experimental": "(§4) Xenograft tumors were generated by subcutaneous injection of A549 lung cancer cells (1 × 10^6 cells/100 µL) into the right flanks of BALB/c female nude mice (5 weeks of age, n = 20). […] The control mice were injected with equal volumes of DW. The tumor size was measured using a caliper (calculated volume = shortest diameter^2 × […]) at 2- or 3-day intervals. The methods were performed in accordance with the relevant guidelines and regulations and were approved by the Animal Care and Use Committee (IACUC) of the National Marine Biodiversity Institute of Korea (Approval No.: MAB-004; approval date: 2 December 2024)."}, "[9]": {"experiment": "Body weight in the A549 xenograft model", "assay_type": "in vivo, mouse", "conditions": "20 mg/kg intratumorally, six injections, during the treatment period", "experimental": "as §4"}}, "note": "Residues, ends and D or L forms follow the SMILES beside them."}
{"smiles": "CC(C)C[C@H](NC(=O)[C@H](Cc1c[nH]c2ccccc12)NC(=O)[C@@H]1CCCN1C(=O)[C@H](CCCCN)NC(=O)[C@H](CCCCN)NC(=O)[C@H](CS)NC(=O)[C@@H](N)CS)C(=O)N[C@@H](CCCNC(=N)N)C(=O)N[C@@H](CS)C(=O)N[C@@H](Cc1c[nH]c2ccccc12)C(=O)N[C@@H](CCCNC(=N)N)C(=O)N[C@H](C(=O)N[C@@H](CS)C(=O)N[C@@H](CC(C)C)C(=O)N1CCC[C@H]1C(=O)N[C@@H](CO)C(=O)N[C@@H](CCCNC(=N)N)C(=O)N[C@@H](Cc1c[nH]c2ccccc12)C(=O)N[C@@H](CCC(N)=O)C(=O)N[C@@H](CCCNC(=N)N)C(=O)N[C@@H](CCC(=O)O)C(=O)N[C@@H](CCCNC(=N)N)C(=O)N[C@@H](Cc1ccccc1)C(=O)NCC(=O)N[C@@H](CCCNC(=N)N)C(=O)N[C@@H](CCCCN)C(=O)N[C@@H](CS)C(N)=O)[C@@H](C)O", "note": "[MP28] (H-CCKKPWLRCWRTCLPSRWQRERFGRKC-NH2; N-terminus assumed)", "values": [{"measurement": "colony formation (long term cell proliferation)", "setting": "[1]", "value": "markedly reduced cell growth"}, {"measurement": "morphological changes", "setting": "lung cancer cells [2]", "value": "morphological changes from a spindle to a cobblestone-like shape"}, {"measurement": "hemolysis (in words)", "setting": "horse blood erythrocytes", "value": "no or minimal hemolysis"}, {"measurement": "migratory capacity", "setting": "NSCLC cells [3]", "value": "significantly reduced"}, {"measurement": "invasive capacity", "setting": "NSCLC cells [4]", "value": "significantly reduced"}, {"measurement": "cellular vimentin level", "setting": "[5]", "value": "decreased the levels of cellular vimentin"}, {"measurement": "residual wound area versus control", "setting": "lung cancer cells [6]", "value": "larger residual wound areas"}, {"measurement": "percentage of apoptotic cells", "setting": "A549 cells", "value": 15.6, "unit": "%"}, {"measurement": "percentage of apoptotic cells", "setting": "H1299 cells; H1299, lower end of the increase (10 μM as read from the text)", "value": 3.1, "unit": "%"}, {"measurement": "percentage of apoptotic cells", "setting": "H1299 cells; H1299, upper end of the increase (20 μM)", "value": 17.8, "unit": "%"}, {"measurement": "percentage of apoptotic cells", "setting": "H460 cells; H460, lower end of the increase (10 μM as read from the text)", "value": 7.5, "unit": "%"}, {"measurement": "percentage of apoptotic cells", "setting": "H460 cells; H460, upper end of the increase (20 μM)", "value": 19.2, "unit": "%"}, {"measurement": "caspase-9 activation", "setting": "[7]; 10 μM MP28 for 3 h, NSCLCs, FITC fluorescence microscopy and flow cytometry", "value": "triggered caspase-9 activation"}, {"measurement": "induction of cleaved caspase-9", "setting": "[7]; A549 and H460 cells (wild-type p53)", "value": "more rapid and robust induction of cleaved caspase-9"}, {"measurement": "induction of cleaved caspase-9", "setting": "[7]; H1299 cells (p53-deficient)", "value": "weaker activation signal"}, {"measurement": "tumor growth versus control", "setting": "[8]", "value": "tumor growth was significantly slower"}, {"measurement": "body weight versus control", "setting": "[9]", "value": "No significant loss of body weight"}]}
